Consider five compounds from US5126326A (Bio-Mega, Inc., priority 1989, dated 1992).

Structures can show the parent of a compound that is named as a salt. *1 amine or outer side, *2 acyl side, *3 side chain or, on linkers, in order; H or OH if unused. Where a SMILES comes first, the peptide text is derived from it. [ ]: non-standard residue; d: D form. The star is where a group is joined. ACHPA = O=C(C[C@H](O)[C@H](CC1CCCCC1)N[*:1])[*:2]; Carboxymethyl = O=C(O)C*; X1 = O=C(C*)OCc1ccccc1; Boc = CC(C)(C)OC(=O)*

In the assay the target is HIV protease (Human immunodeficiency virus type 1 group M subtype B, UniProt P03366). Nature of the assay: biochemical. The protocol:
Recombinant HIV Protease HPLC Assay:
The enzyme was stored as 10 μL aliquots at -70° C. The aliquots were diluted to 1/10th of the original concentration with buffer prior to use (enzyme working solution).
The substrate was made into 10 mM stock in DMSO and stored at -20° C. Prior to use, the stock was diluted with buffer to give a 400 μM solution substrate working solution.
Buffer: 2-(4-Morpholino)ethanesulfonic acid (50 mM), NaCl (25 mM) and EDTA (5 mM) was dissolved in distilled H2 O (90 mL) and the solution was adjusted to pH6 with concentrated aqueous NaOH. The latter solution was diluted to 100 mL with H2 O to give the buffer.
(2) The assay mixture was prepared by mixing 10 μL of the substrate working solution, 0.5 μL of the solution of the test compound in DMSO from step 1, and 10 μL of the enzyme working solution. (3) The assay mixture was incubated at 37° C. for 1 h. (4) The reaction was quenched by adding 100 μL of 2% aqueous TFA. […] Elution was monitored at 210 nm. (6) A control which was the assay mixture without the test compound, was subjected simultaneously to steps 3 to 5.
Inhibition Studies: Cleavage products and remaining parent substrate were quantified by either peak height or by integration of the appropriate HPLC peaks. Substrate conversion was calculated using the following relationship: [formula] Enzyme inhibition of the test compound was calculated as follows: [formula]
The percent inhibition of the enzyme was determined for a minimum of three different concentrations of the test compound. Thereafter, the IC50 was determined graphically by plotting the percent inhibition of the substrate against the concentration of the test compound.
On to `CC(C)C[C@H](NC(=O)C[C@H](O)[C@H](CC1CCCCC1)NC(=O)[C@@H](NC(=O)[C@H](Cc1ccc(OCC(=O)OCc2ccccc2)cc1)NC(=O)OC(C)(C)C)C(C)C)C(=O)N[C@@H](Cc1ccccc1)C(N)=O` [Example 1], for which the IC50 (commonly the midpoint of a concentration-inhibition curve) came out at 0.07 µM.
The compound `CC(C)C[C@H](NC(=O)C[C@H](O)[C@H](CC1CCCCC1)NC(=O)[C@@H](NC(=O)[C@@H](N)Cc1ccc(OCC(=O)OCc2ccccc2)cc1)C(C)C)C(=O)N[C@@H](Cc1ccccc1)C(N)=O` [Example 2, H-Tyr(O-AcOBzl)-Val-ACHPA-Leu-Phe-NH2.HCl] (H-Y(X1)V[ACHPA]LF-NH2) showed a half-inhibitory concentration (IC50) of 0.005 µM.
As to `CC(C)C[C@H](NC(=O)C[C@H](O)[C@H](CC1CCCCC1)NC(=O)[C@@H](NC(=O)[C@H](Cc1ccc(OCC(=O)O)cc1)NC(=O)OC(C)(C)C)C(C)C)C(=O)N[C@@H](Cc1ccccc1)C(N)=O` [Example 3, Boc-Tyr(O-AcOH)-Val-ACHPA-Leu-Phe-NH2] (Boc-Y(Carboxymethyl)V[ACHPA]LF-NH2), the IC50 worked out at 0.052 µM.
Next, `CC(C)C[C@H](NC(=O)C[C@H](O)[C@H](CC1CCCCC1)NC(=O)[C@@H](NC(=O)[C@@H](N)Cc1ccc(OCC(=O)O)cc1)C(C)C)C(=O)N[C@@H](Cc1ccccc1)C(N)=O` [Example 4, H-Tyr(O-AcOH)-Val-ACHPA-Leu-Phe-NH2.HCl] (H-Y(Carboxymethyl)V[ACHPA]LF-NH2): 0.01 µM; `CC(C)C[C@H](NC(=O)C[C@H](O)[C@H](CC1CCCCC1)NC(=O)[C@H](Cc1ccccc1)NC(=O)[C@H](Cc1ccc(OCC(=O)O)cc1)NC(=O)OC(C)(C)C)C(=O)N[C@@H](Cc1ccccc1)C(N)=O` [Example 5, Boc-Tyr(O-AcOH)-Phe-ACHPA-Leu-Phe-NH2] (Boc-Y(Carboxymethyl)F[ACHPA]LF-NH2): 1 µM.
